Reference: patent US20140120232A1, “ACID TASTE/ACID SMELL-REDUCING AGENT” (T. HASEGAWA CO., LTD., priority 2011, published 2014)

Assay: Sensory evaluation of Vermont drink containing the agent
Conditions: ten panels
Method: Water was added to a mixture of 10 g of apple-cider vinegar (acetic acid: 4.8%), 3 g of honey, 7 g of fructose-glucose liquid sugar mixed with sugar, 0.02 g of citric acid, 0.002 g of trisodium citrate, and 0.1 g of a Vermont flavor (manufactured by T. Hasegawa Co., Ltd.) to give a total amount of 100 mL. To the resulting mixture was added (Z,Z)-4,7-tridecadienal as the acid taste and/or acid smell-reducing agent of the present invention in concentrations shown in the following Table 1 to give Vermont drinks containing the agent.
Sensory evaluation of each drink was carried out by ten panels. […] The piercing aroma characteristic to aldehydes is a characteristic aroma common to every aldehyde and refers to an irritant off-smell giving an image of deteriorated oils and fats, soap, metals, Houttuynia cordata, etc. The judgment of smell was performed by comparing the effects at different concentrations of the acid taste and/or acid smell-reducing agent, and a concentration giving the highest acid taste/acid smell quality was selected. […]

For `CCCCC/C=C/C/C=C/CCC=O` [(E,E)-4,7-tridecadienal], the “A: number of panels, acid taste/acid smell extreme and cause irritation” value (0.005 ppt) was 10, the “B: number of panels, acid taste/acid smell slightly strong and slightly cause irritation” value (0.005 ppt) was 0 and the “C: number of panels, acid taste/acid smell slightly unpleasant” value (0.005 ppt) was 0. For the same compound, the “Flavor judgment: number of panels who judged acid taste/acid smell quality the highest” value (0.005 ppt) was 0, the “N: number of panels, irritation of acid reduced to give a mild acid taste” value (0.005 ppt) was 0 and the “X: number of panels, acid taste reduced but piercing odor characteristic to aldehydes unpleasant” value (0.005 ppt) was 0. For the same compound, the “A: number of panels, acid taste/acid smell extreme and cause irritation” value (0.02 ppt) was 10, the “B: number of panels, acid taste/acid smell slightly strong and slightly cause irritation” value (0.02 ppt) was 0 and the “C: number of panels, acid taste/acid smell slightly unpleasant” value (0.02 ppt) was 0. For the same compound, the “Flavor judgment: number of panels who judged acid taste/acid smell quality the highest” value (0.02 ppt) was 0, the “N: number of panels, irritation of acid reduced to give a mild acid taste” value (0.02 ppt) was 0 and the “X: number of panels, acid taste reduced but piercing odor characteristic to aldehydes unpleasant” value (0.02 ppt) was 0. The “A: number of panels, acid taste/acid smell extreme and cause irritation” value (0.1 ppt) was 10, the “B: number of panels, acid taste/acid smell slightly strong and slightly cause irritation” value (0.1 ppt) was 0 and the “C: number of panels, acid taste/acid smell slightly unpleasant” value (0.1 ppt) was 0. For the same compound, the “Flavor judgment: number of panels who judged acid taste/acid smell quality the highest” value (0.1 ppt) was 0, the “N: number of panels, irritation of acid reduced to give a mild acid taste” value (0.1 ppt) was 0 and the “X: number of panels, acid taste reduced but piercing odor characteristic to aldehydes unpleasant” value (0.1 ppt) was 0. For the same compound, the “A: number of panels, acid taste/acid smell extreme and cause irritation” value (0.2 ppt) was 8, the “B: number of panels, acid taste/acid smell slightly strong and slightly cause irritation” value (0.2 ppt) was 2 and the “C: number of panels, acid taste/acid smell slightly unpleasant” value (0.2 ppt) was 0. For the same compound, the “Flavor judgment: number of panels who judged acid taste/acid smell quality the highest” value (0.2 ppt) was 0, the “N: number of panels, irritation of acid reduced to give a mild acid taste” value (0.2 ppt) was 0 and the “X: number of panels, acid taste reduced but piercing odor characteristic to aldehydes unpleasant” value (0.2 ppt) was 0. For the same compound, the “A: number of panels, acid taste/acid smell extreme and cause irritation” value (0.5 ppt) was 6, the “B: number of panels, acid taste/acid smell slightly strong and slightly cause irritation” value (0.5 ppt) was 2 and the “C: number of panels, acid taste/acid smell slightly unpleasant” value (0.5 ppt) was 2. For the same compound, the “Flavor judgment: number of panels who judged acid taste/acid smell quality the highest” value (0.5 ppt) was 0, the “N: number of panels, irritation of acid reduced to give a mild acid taste” value (0.5 ppt) was 0 and the “X: number of panels, acid taste reduced but piercing odor characteristic to aldehydes unpleasant” value (0.5 ppt) was 0. For the same compound, the “A: number of panels, acid taste/acid smell extreme and cause irritation” value (1 ppb) was 0, the “B: number of panels, acid taste/acid smell slightly strong and slightly cause irritation” value (1 ppb) was 0 and the “C: number of panels, acid taste/acid smell slightly unpleasant” value (1 ppb) was 3. The “Flavor judgment: number of panels who judged acid taste/acid smell quality the highest” value (1 ppb) was 0, the “N: number of panels, irritation of acid reduced to give a mild acid taste” value (1 ppb) was 4 and the “X: number of panels, acid taste reduced but piercing odor characteristic to aldehydes unpleasant” value (1 ppb) was 3. For the same compound, the “A: number of panels, acid taste/acid smell extreme and cause irritation” value (1 ppt) was 0, the “B: number of panels, acid taste/acid smell slightly strong and slightly cause irritation” value (1 ppt) was 4 and the “C: number of panels, acid taste/acid smell slightly unpleasant” value (1 ppt) was 5. The “Flavor judgment: number of panels who judged acid taste/acid smell quality the highest” value (1 ppt) was 0, the “N: number of panels, irritation of acid reduced to give a mild acid taste” value (1 ppt) was 1 and the “X: number of panels, acid taste reduced but piercing odor characteristic to aldehydes unpleasant” value (1 ppt) was 0. The “A: number of panels, acid taste/acid smell extreme and cause irritation” value (5 ppt) was 0, the “B: number of panels, acid taste/acid smell slightly strong and slightly cause irritation” value (5 ppt) was 1 and the “C: number of panels, acid taste/acid smell slightly unpleasant” value (5 ppt) was 3. The “Flavor judgment: number of panels who judged acid taste/acid smell quality the highest” value (5 ppt) was 4, the “N: number of panels, irritation of acid reduced to give a mild acid taste” value (5 ppt) was 6 and the “X: number of panels, acid taste reduced but piercing odor characteristic to aldehydes unpleasant” value (5 ppt) was 0. For the same compound, the “A: number of panels, acid taste/acid smell extreme and cause irritation” value (10 ppb) was 0, the “B: number of panels, acid taste/acid smell slightly strong and slightly cause irritation” value (10 ppb) was 0 and the “C: number of panels, acid taste/acid smell slightly unpleasant” value (10 ppb) was 1. The “Flavor judgment: number of panels who judged acid taste/acid smell quality the highest” value (10 ppb) was 0, the “N: number of panels, irritation of acid reduced to give a mild acid taste” value (10 ppb) was 3 and the “X: number of panels, acid taste reduced but piercing odor characteristic to aldehydes unpleasant” value (10 ppb) was 6. For the same compound, the “A: number of panels, acid taste/acid smell extreme and cause irritation” value (20 ppt) was 0, the “B: number of panels, acid taste/acid smell slightly strong and slightly cause irritation” value (20 ppt) was 0 and the “C: number of panels, acid taste/acid smell slightly unpleasant” value (20 ppt) was 3. The “Flavor judgment: number of panels who judged acid taste/acid smell quality the highest” value (20 ppt) was 3, the “N: number of panels, irritation of acid reduced to give a mild acid taste” value (20 ppt) was 7 and the “X: number of panels, acid taste reduced but piercing odor characteristic to aldehydes unpleasant” value (20 ppt) was 0. The “A: number of panels, acid taste/acid smell extreme and cause irritation” value (50 ppb) was 0, the “B: number of panels, acid taste/acid smell slightly strong and slightly cause irritation” value (50 ppb) was 0 and the “C: number of panels, acid taste/acid smell slightly unpleasant” value (50 ppb) was 0. The “Flavor judgment: number of panels who judged acid taste/acid smell quality the highest” value (50 ppb) was 0, the “N: number of panels, irritation of acid reduced to give a mild acid taste” value (50 ppb) was 3 and the “X: number of panels, acid taste reduced but piercing odor characteristic to aldehydes unpleasant” value (50 ppb) was 7. For the same compound, the “A: number of panels, acid taste/acid smell extreme and cause irritation” value (100 ppt) was 0, the “B: number of panels, acid taste/acid smell slightly strong and slightly cause irritation” value (100 ppt) was 0 and the “C: number of panels, acid taste/acid smell slightly unpleasant” value (100 ppt) was 3. The “Flavor judgment: number of panels who judged acid taste/acid smell quality the highest” value (100 ppt) was 3, the “N: number of panels, irritation of acid reduced to give a mild acid taste” value (100 ppt) was 7 and the “X: number of panels, acid taste reduced but piercing odor characteristic to aldehydes unpleasant” value (100 ppt) was 0. The “A: number of panels, acid taste/acid smell extreme and cause irritation” value (500 ppt) was 0, the “B: number of panels, acid taste/acid smell slightly strong and slightly cause irritation” value (500 ppt) was 2 and the “C: number of panels, acid taste/acid smell slightly unpleasant” value (500 ppt) was 3. The “Flavor judgment: number of panels who judged acid taste/acid smell quality the highest” value (500 ppt) was 0, the “N: number of panels, irritation of acid reduced to give a mild acid taste” value (500 ppt) was 3 and the “X: number of panels, acid taste reduced but piercing odor characteristic to aldehydes unpleasant” value (500 ppt) was 2.
